The record followed here is patent publication US7153874B2, “Imidazole derivatives” (Hoffmann-La Roche Inc., priority 2003, dated 2006).

Counter-ions that a name gives are not always drawn.

System in one series: not given
Assay: not given
Conditions: not given
Consider `COc1cc(-n2cc(C#Cc3ccnc(C)c3)nc2C)ccn1` (as salt: HCl) [Compound 69, 2-Methoxy-4-[2-methyl-4-(2-methyl-pyridin-4-ylethynyl)-imidazol-1-yl]-pyridine], for which the melting point (usually the temperature of the solid-liquid transition) was in the range of 145 to 147 °C.
On the same count and under the same terms, the figure for `Cc1cc(C#Cc2cn(-c3ccc(F)cc3)c(C)n2)ccn1` [Compound 1, 4-[1-(4-Fluoro-phenyl)-2-methyl-1H-imidazol-4-ylethynyl]-2-methyl-pyridine] is 151 °C; for `Cc1cc(C#Cc2cn(-c3ncccn3)c(C)n2)ccn1` [Compound 8, 2-[2-Methyl-4-(2-methyl-pyridin-4-ylethynyl)-imidazol-1-yl]-pyrimidine] it is 164 to 165 °C.

The target in another series is T1, human mGlu 5a receptor (Homo sapiens, UniProt P41594).
T1 construct: expressed in transfected cells; host or cells: EBNA cells (transient transfection); cell membrane homogenates
T1 sequence (P41594 21-1180 isoform P41594-2 limits assumed): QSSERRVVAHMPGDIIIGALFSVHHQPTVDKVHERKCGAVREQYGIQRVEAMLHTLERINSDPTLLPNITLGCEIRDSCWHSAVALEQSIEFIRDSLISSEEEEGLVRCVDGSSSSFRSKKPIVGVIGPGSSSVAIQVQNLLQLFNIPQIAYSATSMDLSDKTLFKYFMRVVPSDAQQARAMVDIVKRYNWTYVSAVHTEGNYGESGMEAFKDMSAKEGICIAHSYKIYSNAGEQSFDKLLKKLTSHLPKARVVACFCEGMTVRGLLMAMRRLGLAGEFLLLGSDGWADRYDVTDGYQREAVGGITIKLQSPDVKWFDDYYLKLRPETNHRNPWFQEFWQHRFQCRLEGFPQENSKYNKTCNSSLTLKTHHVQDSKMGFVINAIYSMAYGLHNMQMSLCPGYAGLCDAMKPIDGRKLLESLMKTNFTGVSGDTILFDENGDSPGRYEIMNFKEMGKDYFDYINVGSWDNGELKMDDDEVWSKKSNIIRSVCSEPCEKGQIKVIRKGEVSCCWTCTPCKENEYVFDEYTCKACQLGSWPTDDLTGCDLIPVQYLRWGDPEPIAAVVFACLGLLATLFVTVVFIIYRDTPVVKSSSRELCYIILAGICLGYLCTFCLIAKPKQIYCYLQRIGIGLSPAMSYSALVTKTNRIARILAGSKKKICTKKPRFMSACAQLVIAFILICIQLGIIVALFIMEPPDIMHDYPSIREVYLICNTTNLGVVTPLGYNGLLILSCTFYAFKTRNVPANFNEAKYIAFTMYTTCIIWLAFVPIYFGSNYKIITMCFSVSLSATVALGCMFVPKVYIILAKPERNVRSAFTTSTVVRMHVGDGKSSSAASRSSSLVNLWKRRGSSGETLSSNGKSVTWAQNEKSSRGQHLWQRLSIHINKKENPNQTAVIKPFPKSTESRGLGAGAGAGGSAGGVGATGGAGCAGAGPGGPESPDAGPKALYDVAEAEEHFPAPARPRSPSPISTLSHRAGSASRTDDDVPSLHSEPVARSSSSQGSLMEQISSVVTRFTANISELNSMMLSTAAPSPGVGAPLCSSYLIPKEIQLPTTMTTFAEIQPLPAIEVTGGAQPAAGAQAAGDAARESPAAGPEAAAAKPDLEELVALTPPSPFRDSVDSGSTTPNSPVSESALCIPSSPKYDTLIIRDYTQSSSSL
In words: [3H]MPEP competition binding on membranes of EBNA cells transfected with human mGlu 5a receptor. Conditions: read-out: Ki (mGluR5). The method, then: For binding experiments, cDNA encoding human mGlu 5a receptor was transiently transfected into EBNA cells using a procedure described by Schlaeger and Christensen [Cyto-technology 15:1–13 (1998)]. Cell membrane homogenates were stored at −80° C. until the day of assay where upon they were thawed and resuspended and polytronised in 15 mM Tris-HCl, 120 mM NaCl, 100 mM KCl, 25 mM CaCl2, 25 mM MgCl2 binding buffer at pH 7.4 to a final assay concentration of 20 μg protein/well.
Saturation isotherms were determined by addition of twelve [^3H]MPEP concentrations (0.04–100 nM) to these membranes (in a total volume of 200 μl) for 1 h at 4° C. Competition experiments were performed with a fixed concentration of [^3H]MPEP (2 nM) and IC50 values of test compounds evaluated using 11 concentrations (0.3–10,000 nM). Incubations were performed for 1 h at 4° C.
At the end of the incubation, membranes were filtered onto unifilter (96-well white microplate with bonded GF/C filter preincubated 1 h in 0.1% PEI in wash buffer, Packard BioScience, Meriden, Conn.) with a Filtermate 96 harvester (Packard BioScience) and washed 3 times with cold 50 mM Tris-HCl, pH 7.4 buffer. Nonspecific binding was measured in the presence of 10 μM MPEP. The radioactivity on the filter was counted (3 min) on a Packard Top-count microplate scintillation counter with quenching correction after addition of 45 μl of microscint 40 (Canberra Packard S. A., Zürich, Switzerland) and shaking for 20 min.
The inhibition (antagonists) curves were fitted with a four parameter logistic equation giving IC50, and Hill coefficient using an iterative non linear curve fitting software (Xcel fit).
The Ki value is defined by the following formula: Ki=IC50/[1+L/Kd] in which the IC50 values are those concentrations of the compounds tested which cause 50% inhibition of the competing radioligand ([^3H]MPEP). L is the concentration of radioligand used in the binding experiment and the Kd value of the radioligand is empirically determined for each batch of membranes prepared.
For `Cc1cc(C#Cc2cn(-c3ccc(Cl)c(Cl)c3)c(C)n2)ccn1` [Compound 2, 4-[1-(3,4-Dichloro-phenyl)-2-methyl-1H-imidazol-4-ylethynyl]-2-methyl-pyridine hydrochloride], the Ki – broadly, a dissociation constant, usually derived from enzyme kinetics or from competition with a known ligand – was found to be 18 nM.
Still for that read-out and setting: to `Cc1cc(C#Cc2cn(-c3ccc(F)c(F)c3)c(C)n2)ccn1` [Compound 4, 4-[1-(3,4-difluoro-phenyl)-2-methyl-1H-imidazol-4-ylethynyl]-2-methyl-pyridine] belongs 25 nM; to `Cc1cc(C#Cc2cn(-c3cccc(C(F)(F)F)c3)c(C)n2)ccn1` [Compound 7, 2-methyl-4-[2-methyl-1-(3-trifluoromethyl-phenyl)-1H-imidazol-4-ylethynyl]-pyridine], 24 nM; to `Cc1cc(C#Cc2cn(-c3ncccn3)c(C)n2)ccn1` [Compound 8, 2-[2-Methyl-4-(2-methyl-pyridin-4-ylethynyl)-imidazol-1-yl]-pyrimidine], 74 nM.
Same read-out and setting: to `Cc1cc(C#Cc2cn(-c3ccc4c(ccn4C)c3)c(C)n2)ccn1` [Compound 18, 1-methyl-5-[2-methyl-4-(2-methyl-pyridin-4-ylethynyl)-imidazol-1-yl]-1H-indole] belongs 45 nM; to `Cc1cc(C#Cc2cn(-c3nccc(C(F)(F)F)n3)c(C)n2)ccn1` [Compound 21, 2-[2-methyl-4-(2-methyl-pyridin-4-ylethynyl)-imidazol-1-yl]-4-trifluoromethyl-pyrimidine], 17 nM; to `COc1ccnc(-n2cc(C#Cc3ccnc(C)c3)nc2C)n1` [Compound 22, 4-methoxy-2-[2-methyl-4-(2-methyl-pyridin-4-ylethynyl)-imidazol-1-yl]-pyrimidine], 18 nM.
In the case of `Cc1cc(C#Cc2cn(-c3nccc(Cl)n3)c(C)n2)ccn1` [Compound 29, 4-chloro-2-[2-methyl-4-(2-methyl-pyridin-4-ylethynyl)-imidazol-1-yl]-pyrimidine], the Ki stood at 25 nM.
Still for that read-out and setting: to `Cc1cc(C#Cc2cn(-c3cncc(C4CC4)n3)c(C)n2)ccn1` [Compound 56, 2-cyclopropyl-6-[2-methyl-4-(2-methyl-pyridin-4-ylethynyl)-imidazol-1-yl]-pyrazine] belongs 27 nM.
As to `Cc1cc(C#Cc2cn(-c3cccc(C4CC4)n3)c(C)n2)ccn1` [Compound 57, 2-cyclopropyl-6-[2-methyl-4-(2-methyl-pyridin-4-ylethynyl)-imidazol-1-yl]-pyridine], the Ki worked out at 16 nM.
Consider `COc1cccc(-n2cc(C#Cc3ccnc(C)c3)nc2C)n1` [Compound 68, 2-Methoxy-6-[2-methyl-4-(2-methyl-pyridin-4-ylethynyl)-imidazol-1-yl]-pyridine], for which the Ki was found to be 18 nM.
Consider `Cc1cc(C#Cc2cn(-c3cccc(N(C)C)n3)c(C)n2)ccn1` [Compound 71, dimethyl-{6-[2-methyl-4-(2-methyl-pyridin-4-ylethynyl)-imidazol-1-yl]-pyridin-2-yl}-amine], for which the Ki amounted to 19 nM.
As to `Cc1cc(C#Cc2nc(C)n(-c3ccc(F)cc3)c2C)ccn1` [Compound 88, 4-[1-(4-Fluoro-phenyl)-2,5-dimethyl-1H-imidazol-4-ylethynyl]-2-methyl-pyridine], the Ki worked out at 33 nM.
On the same count and under the same terms, to `Cc1cc(C#Cc2nc(C)n(-c3ccc(F)cc3)c2C=O)ccn1` [Compound 89, 3-(4-Fluoro-phenyl)-2-methyl-5-(2-methyl-pyridin-4-ylethynyl)-3H-imidazole-4-carbaldehyde] belongs 65 nM.
